Patent publication US9675614B2, “PRMT5 inhibitors and uses thereof” (Epizyme, Inc., priority 2012, dated 2017)

Target: PRMT5/MEP50 (Homo sapiens (Human), UniProt O14744)
Assay: PRMT5 Biochemical Assay (PRMT5/MEP50 enzyme assay on peptide substrate, 3H-SAM Flashplate)
Details: PRMT5/MEP50 biochemical assay; read-out: Biochemical IC50
Source text: S-adenosylmethionine (SAM), S-adenosylhomocysteine (SAH), bicine, KCl, Tween20, dimethylsulfoxide (DMSO), bovine skin gelatin (BSG), and Tris(2-carboxyethyl)phosphine hydrochloride solution (TCEP) were purchased from Sigma-Aldrich at the highest level of purity possible. ^3H-SAM was purchase from American Radiolabeled Chemicals with a specific activity of 80 Ci/mmol. 384-well streptavidin Flashplates were purchased from PerkinElmer.
Peptide representative of human histone H4 residues 1-15 was synthesized with a C-terminal linker-affinity tag motif and a C-terminal amide cap by 21st Century Biochemicals. […] The sequence was Ac-[…][K-Biot]amide (SEQ ID NO.:3).
Full-length human MEP50 (NM_024102) clone was amplified from a human testis cDNA library incorporating a 5′ sequence encoding a 6-histidine tag (MHHHHHH) (SEQ ID NO.:5) fused directly to Arg 2 of MEP50. The amplified genes were subcloned into pENTR/D/TEV (Life Technologies) and subsequently transferred by Gateway™ attL×attR recombination to pDEST8 baculvirus expression vector (Life Technologies).
Recombinant baculovirus and Baculovirus-Infected Insect Cells (BIIC) were generated according to Bac-to-Bac kit instructions (Life Technologies) and Wasilko, 2006, respectively. Protein over-expression was accomplished by infecting exponentially growing Spodoptera frugiperda (SF9) cell culture at 1.2×10^6 cell/ml with a 5000 fold dilution of BIIC stock. Infections were carried out at 27° C. for 72 hours, harvested by centrifugation, and stored at −80° C. for purification.
Flag-PRMT5/6His-MeP50 was eluted with 300 mM Imidazole in the same buffer. […] Reference: Wasilko, D. J. and S. E. Lee: “TIPS: titerless infected-cells preservation and scale-up” Bioprocess J., 5 (2006), pp. 29-32.
General Procedure for PRMT5/MEP50 Enzyme Assays on Peptide Substrates.
The assays were all performed in a buffer consisting of 20 mM Bicine (pH=7.6), 1 mM TCEP, 0.005% BSG, and 0.002% Tween20, prepared on the day of use. Compounds in 100% DMSO (1 ul) were spotted into a polypropylene 384-well V-bottom plates (Greiner) using a Platemate Plus outfitted with a 384-channel head (Thermo Scientific). DMSO (1 ul) was added to Columns 11, 12, 23, 24, rows A-H for the maximum signal control and 1 ul of SAH, a known product and inhibitor of PRMT5/MEP50, was added to columns 11, 12, 23, 24, rows I-P for the minimum signal control. A cocktail (40 ul) containing the PRMT5/MEP50 enzyme and the peptide was added by Multidrop Combi (Thermo-Fisher). The compounds were allowed to incubate with PRMT5/MEP50 for 30 min at 25 degrees Celsius, then a cocktail (10 ul) containing ^3H-SAM was added to initiate the reaction (final volume=51 ul). The final concentrations of the components were as follows: PRMT5/MEP50 was 4 nM, ^3H-SAM was 75 nM, peptide was 40 nM, SAH in the minimum signal control wells was 100 uM, and the DMSO concentration was 1%. The assays were stopped by the addition of non-radioactive SAM (10 ul) to a final concentration of 600 uM, which dilutes the ^3H-SAM to a level where its incorporation into the peptide substrate is no longer detectable. 50 ul of the reaction in the 384-well polypropylene plate was then transferred to a 384-well Flashplate and the biotinylated peptides were allowed to bind to the streptavidin surface for at least 1 hour before being washed three times with 0.1% Tween20 in a Biotek ELx405 plate washer. The plates were then read in a PerkinElmer TopCount plate reader to measure the quantity of ^3H-labeled peptide bound to the Flashplate surface, measured as disintegrations per minute (dpm) or alternatively, referred to as counts per minute (cpm).
[formula] Where dpm=disintegrations per minute, cmpd=signal in assay well, and min and max are the respective minimum and maximum signal controls.
[formula] Where top and bottom are the normally allowed to float, but may be fixed at 100 or 0 respectively in a 3-parameter fit.

PRMT5/MEP50, sequence (O14744 other isoform, or with tags, fused parts or gaps): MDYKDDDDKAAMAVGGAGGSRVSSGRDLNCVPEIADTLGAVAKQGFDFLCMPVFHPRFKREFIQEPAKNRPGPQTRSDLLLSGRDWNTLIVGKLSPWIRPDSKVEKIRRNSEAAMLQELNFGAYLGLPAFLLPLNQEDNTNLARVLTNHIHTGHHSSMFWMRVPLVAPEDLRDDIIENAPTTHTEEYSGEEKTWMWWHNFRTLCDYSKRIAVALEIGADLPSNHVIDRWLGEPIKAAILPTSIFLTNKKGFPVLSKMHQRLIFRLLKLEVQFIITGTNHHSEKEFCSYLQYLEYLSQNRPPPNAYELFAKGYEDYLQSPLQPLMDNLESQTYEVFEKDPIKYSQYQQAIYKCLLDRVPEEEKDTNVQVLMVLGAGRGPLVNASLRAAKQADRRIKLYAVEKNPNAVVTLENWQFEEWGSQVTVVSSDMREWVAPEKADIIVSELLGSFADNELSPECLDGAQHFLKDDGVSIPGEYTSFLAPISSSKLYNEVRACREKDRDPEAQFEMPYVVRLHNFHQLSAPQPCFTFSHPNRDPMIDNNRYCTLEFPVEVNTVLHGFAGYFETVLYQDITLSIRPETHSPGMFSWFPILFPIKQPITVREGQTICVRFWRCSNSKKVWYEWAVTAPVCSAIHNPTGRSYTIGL
PRMT5/MEP50, sequence (Q9BQA1 other isoform, or with tags, fused parts or gaps partner): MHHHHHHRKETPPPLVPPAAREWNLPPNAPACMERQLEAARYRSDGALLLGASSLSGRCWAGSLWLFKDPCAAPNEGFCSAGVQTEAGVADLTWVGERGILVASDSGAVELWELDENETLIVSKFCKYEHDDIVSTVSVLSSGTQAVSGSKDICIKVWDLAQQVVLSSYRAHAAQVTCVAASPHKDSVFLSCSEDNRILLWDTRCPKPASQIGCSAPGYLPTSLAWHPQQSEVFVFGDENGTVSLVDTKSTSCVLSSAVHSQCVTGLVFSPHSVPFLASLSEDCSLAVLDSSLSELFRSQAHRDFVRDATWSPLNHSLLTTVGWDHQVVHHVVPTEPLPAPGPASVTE

O=C(NCC(O)CN1CCc2ccccc2C1)c1cccc(-c2ccccn2)c1 (stereo not shown) [Compound 1, N-(3-(3,4-dihydroisoquinolin-2(1H)-yl)-2-hydroxypropyl)-3-(pyridin-2-yl)benzamide]
IC50: < 100 nM

O=C(NC[C@H](O)CN1CCc2ccccc2C1)c1ccc2[nH]ccc2c1 [Compound 270]
IC50: 1000 to 10000 nM

CC1CC(Nc2cccc(C(=O)NC[C@@H](O)CN3CCc4ccccc4C3)c2)CC(C)O1 (stereo partly shown) [Compound 153]
IC50: < 100 nM

O=C(NC[C@H](O)CN1CCc2ccccc2C1)c1ccnc(NC2CCCC2)c1 [Compound 334]
IC50: < 100 nM

O=C(NC[C@H](O)CN1CCc2ccccc2C1)c1nc2cc(Br)ccc2[nH]1 [Compound 319]
IC50: < 100 nM

O=C(NC[C@H](O)CN1CCc2ccccc2C1)c1cncc(OC2CCNCC2)c1 [Compound 260]
IC50: < 100 nM

O=C(NC[C@H](O)CN1CCc2ccccc2C1)c1cncc(NC2CCNC2)c1 (stereo partly shown) [Compound 259]
IC50: < 100 nM

O=C(NC[C@H](O)CN1CCc2ccccc2C1)c1c(O)ccc2ccccc12 [Compound 327]
IC50: 101 to 1000 nM

CNC(=O)CCCN1CCN(Cc2cccc(C(=O)NCC(O)CN3CCc4ccccc4C3)c2)CC1 (stereo not shown) [Compound 175]
IC50: < 100 nM

O=C(NCC(O)CN1CCc2ccccc2C1)c1cc(NC2CCOCC2)ncn1 (stereo not shown) [Compound 63]
IC50: < 100 nM

O=C(NCC(O)CN1CCc2ccccc2C1)c1ccc(N2CCS(=O)(=O)CC2)cc1 (stereo not shown) [Compound 179]
IC50: < 100 nM

CS(=O)(=O)N1CC[C@H](Nc2cccc(C(=O)NC[C@H](O)CN3CCc4ccccc4C3)c2)C1 [Compound 268]
IC50: < 100 nM

CN(CCNc1cc(C(=O)NC[C@H](O)CN2CCc3ccccc3C2)ccn1)S(C)(=O)=O [Compound 262]
IC50: < 100 nM

CN1CCC(CNc2cc(C(=O)NC[C@H](O)CN3CCc4ccccc4C3)ccn2)CC1 [Compound 292]
IC50: < 100 nM

O=C(NCC(O)CN1CCc2ccccc2C1)c1cc(F)cc(NC2CCOCC2)c1 (stereo not shown) [Compound 78]
IC50: < 100 nM

O=C(NC[C@H](O)CN1CCc2ccccc2C1)c1ccnc(NCC2CCNCC2)c1 [Compound 235]
IC50: < 100 nM

O=C(NC[C@H](O)CN1CCc2ccccc2C1)c1ccnc(OC2CCN(CC(F)(F)F)CC2)c1 [Compound 203]
IC50: < 100 nM

Cn1nccc1-c1cccc(C(=O)NCC(O)CN2CCc3ccccc3C2)c1 (stereo not shown) [Compound 2, N-(3-(3,4-dihydroisoquinolin-2(1H)-yl)-2-hydroxypropyl)-3-(1-methyl-1H-pyrazol-5-yl)benzamide]
IC50: < 100 nM

CN(C)CCN(C)c1cc(C(=O)NC[C@H](O)CN2CCc3ccccc3C2)ccn1 [Compound 186]
IC50: < 100 nM

O=C(NCC(O)CN1CCc2ccccc2C1)c1cccc(NC2CCN(CC(F)(F)F)C2)c1 (stereo not shown) [Compound 102]
IC50: < 100 nM

O=C(NCC(O)CN1CCc2ccccc2C1)c1cccc(NC2CCOCC2)c1F (stereo not shown) [Compound 79]
IC50: < 100 nM

CC(=O)N(C)CCNc1cc(C(=O)NC[C@H](O)CN2CCc3ccccc3C2)ccn1 [Compound 315]
IC50: < 100 nM

CS(=O)(=O)N1CCC(Nc2cc(C(=O)NC[C@H](O)CN3CCc4ccccc4C3)ncn2)C1 (stereo partly shown) [Compound 257]
IC50: < 100 nM

CN1CCC(Oc2ccc(C(=O)NCC(O)CN3CCc4ccccc4C3)cc2)C1 (stereo not shown) [Compound 177]
IC50: < 100 nM

CC(=O)N1CCC(Nc2cccc(C(=O)NCC(O)CN3CCc4ccccc4C3)c2)CC1 (stereo not shown) [Compound 124]
IC50: < 100 nM

CS(=O)(=O)N1CCC(Nc2cccc(C(=O)NCC(O)CN3CCc4ccccc4C3)c2)C1 (stereo not shown) [Compound 122]
IC50: < 100 nM

COCCN1CCN(Cc2cccc(C(=O)NCC(O)CN3CCc4ccccc4C3)c2)CC1 (stereo not shown) [Compound 114]
IC50: < 100 nM

CS(=O)(=O)N1CCC(Oc2ccc(C(=O)NCC(O)CN3CCc4ccccc4C3)cc2)C1 (stereo not shown) [Compound 198]
IC50: < 100 nM

O=C(O)CCCN1CCN(Cc2cccc(C(=O)NCC(O)CN3CCc4ccccc4C3)c2)CC1 (stereo not shown) [Compound 158]
IC50: < 100 nM

O=C(NC[C@H](O)CN1CCc2ccccc2C1)c1ccc2[nH]nnc2c1 [Compound 305]
IC50: 101 to 1000 nM

O=C(NCC(O)CN1CCc2ccccc2C1)c1ccc(CN2CCOCC2)cc1 (stereo not shown) [Compound 145]
IC50: < 100 nM

O=C(NCC(O)CN1CCc2ccccc2C1)c1ccc(NC2CCOC2)cc1 (stereo not shown) [Compound 129]
IC50: < 100 nM

O=C(NC[C@H](O)CN1CCc2ccccc2C1)c1cncc(NC2CCOC2)c1 (stereo partly shown) [Compound 211]
IC50: < 100 nM

NCCNc1cc(C(=O)NC[C@H](O)CN2CCc3ccccc3C2)ccn1 [Compound 320]
IC50: < 100 nM

O=C(NCC(O)CN1CCc2ccccc2C1)c1ccnc(NC2CCOCC2)c1 (stereo not shown) [Compound 74]
IC50: < 100 nM

CC(=O)N(C)CCN(C)c1cc(C(=O)NC[C@H](O)CN2CCc3ccccc3C2)ccn1 [Compound 291]
IC50: < 100 nM

CN(C)CCCOc1ccc(C(=O)NCC(O)CN2CCc3ccccc3C2)cc1 (stereo not shown) [Compound 178]
IC50: < 100 nM

Cc1cnc(NC2CCOCC2)cc1C(=O)NC[C@H](O)CN1CCc2ccccc2C1 [Compound 307]
IC50: < 100 nM

O=C(NC[C@H](O)CN1CCc2ccccc2C1)c1cc(OC2CCOCC2)ncn1 [Compound 256]
IC50: < 100 nM

Cc1cnc(OC2CCOCC2)cc1C(=O)NC[C@H](O)CN1CCc2ccccc2C1 [Compound 309]
IC50: 101 to 1000 nM

O=C(NC[C@H](O)CN1CCc2ccccc2C1)c1ccnc(NC2CCOC2)c1 (stereo partly shown) [Compound 306]
IC50: < 100 nM

O=C(NCC(O)CN1CCc2ccccc2C1)c1ccc2ncccc2c1 (stereo not shown) [Compound 68]
IC50: < 100 nM

NC(=O)CCCN1CCN(Cc2cccc(C(=O)NCC(O)CN3CCc4ccccc4C3)c2)CC1 (stereo not shown) [Compound 159]
IC50: < 100 nM

CN1CCC(Oc2cc(C(=O)NC[C@H](O)CN3CCc4ccccc4C3)ccn2)CC1 [Compound 202]
IC50: < 100 nM

O=C(NC[C@H](O)CN1CCc2ccccc2C1)c1cccc(NC2CCOCC2)c1 [Compound 44, (S)—N-(3-(3,4-dihydroisoquinolin-2(1H)-yl)-2-hydroxypropyl)-3-((tetrahydro-2H-pyran-4-yl)amino)benzamide]
IC50: < 100 nM

O=C(NCC(O)CN1CCc2ccccc2C1)c1ccc(OC2CCN(CC(F)(F)F)C2)cc1 (stereo not shown) [Compound 199]
IC50: < 100 nM

O=C(NC[C@H](O)CN1CCc2ccccc2C1)c1cc(NC2CCNCC2)ncn1 [Compound 180]
IC50: < 100 nM

CS(=O)(=O)N1CCC(Oc2cncc(C(=O)NC[C@H](O)CN3CCc4ccccc4C3)c2)CC1 [Compound 290]
IC50: < 100 nM

O=C(NCC(O)CN1CCc2ccccc2C1)c1cccc(-c2cc[nH]n2)c1 (stereo not shown) [Compound 10]
IC50: < 100 nM

CN(c1cc(C(=O)NC[C@H](O)CN2CCc3ccccc3C2)ccn1)C1CCC1 [Compound 333]
IC50: < 100 nM

CN1CCCC1c1cccc(C(=O)NCC(O)CN2CCc3ccccc3C2)c1 (stereo not shown) [Compound 34, N-(3-(3,4-dihydroisoquinolin-2(1H)-yl)-2-hydroxypropyl)-3-(1-methylpyrrolidin-2-yl) benzamide]
IC50: < 100 nM

CC(=O)N1CCC(Oc2cccc(C(=O)NCC(O)CN3CCc4ccccc4C3)c2)C1 (stereo not shown) [Compound 136]
IC50: < 100 nM

O=C(NCC(O)CN1CCc2ccccc2C1)c1cccc(NC2CCN(CC(F)(F)F)CC2)c1 (stereo not shown) [Compound 126]
IC50: < 100 nM

CC(=O)N(C)CCN1CCN(Cc2cccc(C(=O)NCC(O)CN3CCc4ccccc4C3)c2)CC1 (stereo not shown) [Compound 252]
IC50: < 100 nM

CCN(c1cccc(C(=O)NCC(O)CN2CCc3ccccc3C2)c1C)C1CCOCC1 (stereo not shown) [Compound 41]
IC50: < 100 nM
